Laboratory results reported in patent US5691366A, “Nitro compounds, process for preparation thereof and use thereof” (Fujisawa Pharmaceutical Co., Ltd., priority 1991, dated 1997).
pIC50: −log10 of the molar value. Like-named read-outs stand apart in the source and are kept apart here.

Key:
[1] = system: Mean Arterial Blood Pressure in Anesthetized Rats; assay: Effect on mean arterial blood pressure in anesthetized rats (intravenous); format: in vivo, rat (male Sprague-Dawley); details: for inhibition in vivo at 0.032 mg/kg / inhibition in vivo at 0.1 mg/kg / inhibition in vivo at 0.32 mg/kg: Rattus norvegicus, iv, maximal % decrease of mean blood pressure, read-out: Hypotensive effect R max; for Hypotensive effect T 1/2: i.v., time to recover to half of maximal decrease
Description: Male Sprague-Dawley rats, aged 9-12 weeks, were anesthetized with urethane (1.4 g/kg i.p.). A polyethylene cannula filled with heparin solution was inserted into the femoral artery of the rats to measure mean blood pressure. Mean blood pressure was measured with a pressure transducer and recorded on a polygraph. The test compound dissolved in ethanol, polyethylene glycol and distilled water (1:1:2), were administered intraveneously in a volume of 0.25 ml/kg. Intravenous hypothypotensive effects of each compound were expressed as the maximal decrease (R max) and the half time (T 1/2). Briefly, R max was expressed as maximal % change compared to mean blood pressure prior to the administration of compound. T 1/2 was expressed as a time during which the hypotensive effect recovered to half of the maximal decrease.

[2] = system: thoracic aorta from male Sprague-Dawley rats; assay: Vasodilating activity in vitro (relaxation of norepinephrine-contracted aortic strips); set-up: species or system rat (male Sprague-Dawley); details: rat aorta helical strips contracted by 3.2×10^-8 g/ml norepinephrine, 37° C.
Description: The thoracic aorta from male Sprague-Dawley rats, aged 9-11 weeks, were removed and cut into helical strips after removal of excess fat and connective tissues. The strips were mounted vertically in organ baths containing 25 ml Tyrode solution and isometric tension was measured. The tissue bath solution was maintained at 37° C. and bubbled with a 95% O2 and 5% CO2 gas mixture. After the resting tension was adjusted to 0.5 g, the strips were contracted by 3.2×10^-8 g/ml of norepinephrine (NE). The test compound dissolved in ethanol, polyethylene glycol and distilled water (1:1:2) were added to the organ bath cumulatively.
Then, relaxative activity of test compound was expressed as IC50 value i.e. concentration required to inhibit the contraction response by 50%.

[3] = system: human platelet aggregation; assay: Inhibition of human platelet aggregation (anti-platelet aggregation activity); format: cell-based; details: human PRP, concentration required to inhibit aggregation by 50%, read-out: ED50 (the source's name)
Description: Inhibitory activity of the nitro compounds of this invention against human platelet aggregation was measured according to the method described below.
Blood was collected from human volunteers. The blood was prevented from coagulation with 1 volume of 3.8% sodium citrate to 9 volumes of blood. Platelet rich plasma (PRP) was prepared by centrifugation of the blood at 1300 rpm for 10 min. at 10° C. The PRP was diluted with platelet poor plasma obtained by further centrifugation of the blood at 3000 rpm for 10 min. The platelet counts in the PRP used for aggregation studies were about 4.0×10^5 platelets/mm^3. Aggregation studies were performed turbidimetrically using NKK HEMATRACER 1. To 225 μl of PRP 25 μl of the test compounds was added and preincubated for 2 min. After preincubation 5 μl of aggregating agents were added to the mixture. Collagen and ADP were used as aggregating agents at the concentrations of 0.5 μg/ml and 2.5 μM, respectively. Activities of the test compounds were expressed as ED50 values i.e. concentrations required to inhibit the platelet aggregation responses by 50%.

[4] = system: Mean Arterial Blood Pressure in Conscious Rats; assay: Effect on mean arterial blood pressure in conscious rats (oral); format: in vivo, rat (male Sprague-Dawley); details: for Hypotensive effect Dur.: time to recover to 5% of maximal decrease; for Hypotensive effect T 1/2: time to recover to half of maximal decrease; for inhibition in vivo at 3.2 mg/kg / inhibition in vivo at 10 mg/kg / inhibition in vivo at 32 mg/kg: Rattus norvegicus, po, maximal % decrease of mean blood pressure, read-out: Hypotensive effect R max
Description: Male Sprague-Dawley rats, aged 9-11 weeks, were anesthetized with ether and a polyethylene cannula filled with heparin solution was inserted into the femoral artery of the rats to measure mean blood pressure. Mean blood pressure was measured with a pressure transducer and recorded on a polygraph. Two hours after operation, the drug suspended in 0.5% methyl cellulose was administered orally in a volume of 5 ml/kg. Oral hypotensive effects of each compound were expressed as the maximal decrease (R max), the half time (T 1/2) and the duration (Dur.). Briefly, R max was expressed as maximal % change compared to mean blood pressure prior to the administration of compound. T 1/2 was expressed as a time during which the hypotensive effect recovered to half of the maximal decrease. Duration was expressed as a time during which the hypotensive effect recovered to 5% of the maximal decrease.

[5] = Homo sapiens, Platelet, Inducer: ADP 2.5 μM

pIC50 [2]	pIC50 ([2]; Rattus norvegicus)	SMILES	inhibition in vivo at 0.032 mg/kg ([1]; 0.032 mg/kg)	Hypotensive effect T 1/2 ([1]; 0.1 mg/kg)	inhibition in vivo at 0.1 mg/kg ([1]; 0.1 mg/kg)	inhibition in vivo at 0.32 mg/kg ([1]; 0.32 mg/kg)	Hypotensive effect T 1/2 ([1]; 0.32 mg/kg)	also measured
5.00		CCC(=CC(COC(=O)c1cccnc1)=NO)C(C)[N+](=O)[O-] (single isomer, unassigned) [Example 1 B, 4-ethyl-2-hydroxyimino-5-nitro-3-hexen-1-yl 3-pyridinecarboxylate]	11.8%					
4.71		CCC(=CC(CNS(=O)(=O)N(C)C)=NO)C(C)[N+](=O)[O-] (single isomer, unassigned) [Example 7 B, N,N-Dimethyl-N'-(4-ethyl-2-hydroxyimino-5-nitro-3-hexen-1-yl)sulfamide]		6.6 min				
	6.96	CCC(=CC(CSc1nc2ccccc2s1)=NO)C(C)[N+](=O)[O-] (single isomer, unassigned) [Example 14 B, 2-(4-Ethyl-2-hydroxyimino-5-nitro-3-hexen-1-yl)thio-benzothiazole]	4.7%		33.9%			
4.60		CCC(=CC(CNC(=O)c1cccnc1)=NO)C(C)[N+](=O)[O-] (centres unmarked) [Example 6 A]		6.8 min	16.9%	36.3%	11.2 min	pIC50 [3, 5]: 5.74; Hypotensive effect Dur. ([4]; 3.2 mg/kg): 29.3 min; Hypotensive effect T 1/2 ([4]; 3.2 mg/kg): 20 min; Hypotensive effect Dur. ([4]; 10 mg/kg): 116.0 min; Hypotensive effect T 1/2 ([4]; 10 mg/kg): 30 min; Hypotensive effect Dur. ([4]; 32 mg/kg): > 300 min; Hypotensive effect T 1/2 ([4]; 32 mg/kg): 117 min; inhibition in vivo at 3.2 mg/kg ([4]; 3.2 mg/kg): 22.3%; inhibition in vivo at 10 mg/kg ([4]; 10 mg/kg): 27.2%; inhibition in vivo at 32 mg/kg ([4]; 32 mg/kg): 29.6%
4.05		CCC(=CC(CNC(C)=O)=NO)C(C)[N+](=O)[O-] (single isomer, unassigned) [Example 5 B, 1-Acetylamino-4-ethyl-2-hydroxyimino-5-nitro-3-hexene]		6.2 min	34.3%			
	4.33	CCC(=CC(CNC(C)=O)=NO)C(C)[N+](=O)[O-] (single isomer, unassigned) [Example 5 A, 1-Acetylamino-4-ethyl-2-hydroxyimino-5-nitro-3-hexene]		7.6 min		49.9%	12.8 min	pIC50 [3, 5]: 5.29; Hypotensive effect Dur. ([4]; 3.2 mg/kg): 30.8 min; Hypotensive effect T 1/2 ([4]; 3.2 mg/kg): 16 min; Hypotensive effect Dur. ([4]; 10 mg/kg): 83.9 min; Hypotensive effect T 1/2 ([4]; 10 mg/kg): 25 min; Hypotensive effect Dur. ([4]; 32 mg/kg): 144.2 min; Hypotensive effect T 1/2 ([4]; 32 mg/kg): 75.6 min; inhibition in vivo at 3.2 mg/kg ([4]; 3.2 mg/kg): 27.2%; inhibition in vivo at 10 mg/kg ([4]; 10 mg/kg): 54.4%; inhibition in vivo at 32 mg/kg ([4]; 32 mg/kg): 60.6%
	4.95	CCC(=CC(COC(N)=O)=NO)C(C)[N+](=O)[O-] (single isomer, unassigned) [Example 2 B, 4-Ethyl-2-hydroxyimino-5-nitro-3-hexen-1-yl carbamate]	30.9%	7.3 min	35.4%			Hypotensive effect T 1/2 ([1]; 0.032 mg/kg): 5.3 min; pIC50 ([3]; Inducer: ADP 2.5 μM): 5.62; pIC50 ([3]; Inducer: Collagen 0.5 μg/ml): 5.44
	4.80	CCC(=CC(COC(=O)c1cccnc1)=NO)C(C)[N+](=O)[O-] (single isomer, unassigned) [Example 1 A, 4-ethyl-2-hydroxyimino-5-nitro-3-hexen-1-yl 3-pyridinecarboxylate]			21.7%	37%		
5.30		CCC(=CC(CSc1nnnn1C)=NO)C(C)[N+](=O)[O-] (single isomer, unassigned) [Example 12 B, 1-Methyl-5-(4-ethyl-2-hydroxyimino-5-nitro-3-hexen-1-yl)thiotetrazole]						pIC50 ([3]; Inducer: ADP 2.5 μM): 5.77
		CCC(=CC(COC(N)=O)=NO)C(C)[N+](=O)[O-] (single isomer, unassigned) [Example 2 A, 4-Ethyl-2-hydroxyimino-5-nitro-3-hexen-1-yl carbamate]						pIC50 ([3]; Homo sapiens, Platelet, Inducer: Collagen 0.5 μg/ml): 5.34; pIC50 ([3]; Inducer: ADP 2.5 μM): 5.07
	5.31	CCC(=CC(CSc1nnnn1C)=NO)C(C)[N+](=O)[O-] (single isomer, unassigned) [Example 12 A, 1-Methyl-5-(4-ethyl-2-hydroxyimino-5-nitro-3-hexen-1-yl)thiotetrazole]	16.7%	5.9 min	37.7%			Hypotensive effect T 1/2 ([1]; 0.032 mg/kg): 7.4 min; pIC50 [3, 5]: 5.96
5.74		CCC(=CC(CN1C(=O)c2ccccc2C1=O)=NO)C(C)[N+](=O)[O-] (single isomer, unassigned) [Example 4 B, N-(4-Ethyl-2-hydroxyimino-5-nitro-3-hexen-1-yl)-phthalimide]						
	4.73	CCNC(=O)OCC(C=C(CC)C(C)[N+](=O)[O-])=NO (single isomer, unassigned) [Example 3 A, 4-Ethyl-2-hydroxyimino-5-nitro-3-hexen-1-yl ethylcarbamate]	12.6%	7.2 min	29.3%			Hypotensive effect T 1/2 ([1]; 0.032 mg/kg): 4.8 min
	4.97	CCC(=CC(CNS(=O)(=O)N(C)C)=NO)C(C)[N+](=O)[O-] (single isomer, unassigned) [Example 7 A, N,N-Dimethyl-N'-(4-ethyl-2-hydroxyimino-5-nitro-3-hexen-1-yl)sulfamide]		7.6 min	31.7%	42.1%	5.1 min	
	5.92	CCC(=CC(CN1C(=O)c2ccccc2C1=O)=NO)C(C)[N+](=O)[O-] (single isomer, unassigned) [Example 4 A, N-(4-Ethyl-2-hydroxyimino-5-nitro-3-hexen-1-yl)-phthalimide]		6.7 min	24.6%	40.8%	5.1 min	
		CCC(=CC(CNC(=O)c1cccnc1Cl)=NO)C(C)[N+](=O)[O-] (centres unmarked) [Example 32, N-(4-Ethyl-2-hydroxyimino-5-nitro-3-hexen-1-yl)-2-chloro-3-pyridinecarboxamide]				42.5%	13.6 min	Hypotensive effect Dur. ([4]; 10 mg/kg): 50.9 min; Hypotensive effect T 1/2 ([4]; 10 mg/kg): 19.6 min; inhibition in vivo at 10 mg/kg ([4]; 10 mg/kg): 43.2%
